Common to all, as to set-up: species or system mice
Data set [1] can be described thus: In vivo antitumor assay, LC12(sc). Particulars: mouse, in vivo, drug iv, qd 3,5, exp 1161, MTD not achieved, maximum dose tested. The source says: (§1) Mice: Inbred: C3H/He and NCR-nu; and Hybrids: B6D2F1 (C57BL/6 females×DBA/2 males, CD2F1 (Balb/c females×DBS/2 males) and B6C3fl (C57BL/6×C3H) were bred at Wayne State University from strains obtained from the Frederick Cancer Research Facility, Frederick, Maryland or purchased from commercial suppliers.
(§2) Tumors: Murine Tumor: P388 and an adriamycin-resistant (ADR) subline P388/ADR leukemia and the following transplantable solid tumors of mice were used for in vivo testing: B16 melanoma (B16), pancreatic ductal adenocarcinoma No. 03 (Pane 03), colon adenocarcinoma No. 38 (colo 38), lung carcinoma No. 12 (LC 12), mammary ductal adenocarcinoma No. 16/C (Mam16C) and an adriamycin-resistant subline Mam16C/ADR. Human tumor: A single human tumor, mammary carcinoma MX-1 was used for in vivo testing. All tumors are in the Developmental Therapeutics Program frozen tumor respository, maintained by the Biological Testing Branch, Frederick Maryland. Each has a detailed description, code identification number, and list of references at the National Tumor Repository. Murine tumors were maintained in the mouse strain of origin and were transplanted in the appropriate F1 hydrid (or the strain of origin) for therapy trials. […]
(§3) Quantitative end points used to assess antitumor activity included % Increased Life Span (% ILS), Tumor Cell Kill (Log10 kill), and Tumor Growth Inhibition (T/C). […]
(§4) Tumors were measured with a caliper once or twice weekly (as needed) until either tumors exceeded 1600 mg or cure was assured. […] When the control group tumors reached approximately 750-1500 mg in size (median of group), the median tumor weight of each group was determined (including zeros). […] The % T/C was calculated from the following formula for solid murine tumor models: [formula] where T and C are median tumor weights of the treatment and control groups, respectively. […] By convention the T/C value for the mammary carcinoma MX-1 models is calculated by the parameter of change in tumor weight .

The subject of data set [2] is lung carcinoma No. 12 (LC 12). Kind of data set: In vivo antitumor assay, LC12(sc). To be noted: drug iv, qd 3,5, exp 1161.
Excerpt: as §1, §2, §3, §4

The nature of data set [3]: In vivo antitumor assay, P388(iv). Particulars: mouse, in vivo, drug iv, qd 1-3, exp 1155A.
Excerpt: as §1, §2, §3
(§5) Endpoints were calculated as follows: [formula] where Dt is the median day of death for treated and Dc is the median day of death for control groups. […] Minimum quantitative activity limits for additional P388 models (e.g. P388/ADR and P388, IV) have not been defined. […]
(§6) The log10 cell kill was calculated from the following formula: [formula] where T-C is the tumor difference in the median day of death between the treated (T) and the control (C) groups and Td is the tumor doubling time (in days), the latter estimated from the best fit straight line from a log-linear growth plot of the control-group tumors in exponential growth. […]

In data set [4] the test system is P388 leukemia. Kind of data set: In vivo antitumor assay, P388(iv). Particulars: drug iv, qd 1-3, exp 1155A.
Excerpt: as §1, §2, §3, §5, §6

The text below walks through data of patent publication US5334595A, “Pyrazoloquinolones as anticancer agents” (priority 1992, dated 1994).

The structures appear in SMILES notation. Bounds are passed on as bounds.

For the compound `Cc1cc(-c2c(F)cc3c4nn(CCN(C)C)c(=O)c-4cn(C4CC4)c3c2F)cc(C)n1.O=C(O)/C=C/C(=O)O` [Example 1, 5-Cyclopropyl-6,8-difluoro-2,5-dihydro-2-[2-(dimethylamino)-ethyl]-7-(2,6-dimethyl-4-pyridinyl)-3H-pyrazolo[4,3-c]quinolin-3-one (E)-2-butendioate (1:1)], the MTD is greater than 35 mg/kg in data set [1] and 37 mg/kg in data set [3]. Also, the “Log Kill” value in data set [2] stood at 0.76; in data set [4], 5.4. In addition, the T/C % in data set [2] came out at 25%. In addition, the ILS % in data set [4] stood at 82%.
